Measurements reported in ChEMBL document CHEMBL1141251, “Anthelmintic macrolactams from Nonomuraea turkmeniaca MA7364” (2007).
Values after ≈ are worked out from the molar mass of the structure shown. Active and inactive are the calls of the source. The rule behind the calls is not given here.

What was measured:
Haemonchus contortus = assay: Anthelmintic activity against Haemonchus contortus assessed as reduction in L3 larval motility; format: functional
[1] = test system: Heligmosomoides polygyrus; assay: Anthelmintic activity in Heligmosomoides polygyrus infected Swiss Webster mouse assessed as reduction in worm count at 50 mg/kg, sc on day 3 relative to control; format: functional

SMILES	EC90 (Haemonchus contortus) [µg/mL]	Activity [1]	Activity ([1]; route subcutaneous) [%]
CCC1CCCCCC[C@H](O[C@@H]2O[C@@H](C)[C@@H](O)[C@@H](NC)[C@H]2O)[C@@H](C)C(=O)NCCC1 (some centres undefined)	15 (≈ 35 µM)	inactive	–
CCC1CCCNC(=O)[C@H](C)[C@@H](O[C@@H]2O[C@@H](C)[C@@H](O)[C@@H](NC)[C@H]2O)CCC(C)CCC1 (some centres undefined)	29 (≈ 65.5 µM)	–	42
